# In ChEMBL document CHEMBL5724914, “Linking interpersonal differences in gut microbiota composition and drug biotransformation activity” (2024):
# Details: human gut metagenome, 24 h, 2 µM
# Note: call rule not given here.
row,Compound,Bacterial Biotransformation
1,CNCCC(Oc1ccc(C(F)(F)F)cc1)c1ccccc1 (stereo not given) [FLUOXETINE],Compound NOT metabolized
2,CCc1nc(N)nc(N)c1-c1ccc(Cl)cc1 [PYRIMETHAMINE],Compound NOT metabolized
3,CN(C)CCc1c[nH]c2ccc(Cn3cncn3)cc12.O=C(O)c1ccccc1 [RIZATRIPTAN BENZOATE],Compound NOT metabolized

# Details: human gut metagenome, 24 h, 2 µM
# Remark: another data set of the same source
row,Compound,Bacterial Biotransformation
1,CNCCC(Oc1ccc(C(F)(F)F)cc1)c1ccccc1 (stereo not given) [FLUOXETINE],Compound NOT metabolized
2,CCc1nc(N)nc(N)c1-c1ccc(Cl)cc1 [PYRIMETHAMINE],Compound metabolized
3,CN(C)CCc1c[nH]c2ccc(Cn3cncn3)cc12.O=C(O)c1ccccc1 [RIZATRIPTAN BENZOATE],Compound NOT metabolized

# Experiment: (§1) The drug is tested on Z-006 corresponding to mouse gut metagenome with ENA study accession number: PRJEB37062 and ENA sample accession number: ERS12561806 for biotransformation under anaerobic condition. The drug concentrations were measured over 9 timepoints collected between 0 and 24 hours of incubation by liquid-chromatography-coupled mass spectrometry (LC–MS)
# Details: 2 µM
row,Compound,Bacterial Biotransformation
1,CNCCC(Oc1ccc(C(F)(F)F)cc1)c1ccccc1 (stereo not given) [FLUOXETINE],Compound NOT metabolized
2,CCc1nc(N)nc(N)c1-c1ccc(Cl)cc1 [PYRIMETHAMINE],Compound NOT metabolized
3,CN(C)CCc1c[nH]c2ccc(Cn3cncn3)cc12.O=C(O)c1ccccc1 [RIZATRIPTAN BENZOATE],Compound NOT metabolized

# Experiment: as §1, with “WLS-350” for “Z-006”, “human” for “mouse”, “ERS12561789” for “ERS12561806”
# Details: 2 µM
row,Compound,Bacterial Biotransformation
1,CNCCC(Oc1ccc(C(F)(F)F)cc1)c1ccccc1 (stereo not given) [FLUOXETINE],Compound NOT metabolized
2,CCc1nc(N)nc(N)c1-c1ccc(Cl)cc1 [PYRIMETHAMINE],Compound NOT metabolized
3,CN(C)CCc1c[nH]c2ccc(Cn3cncn3)cc12.O=C(O)c1ccccc1 [RIZATRIPTAN BENZOATE],Compound NOT metabolized

# Experiment: as §1, with “Z-005” for “Z-006”, “to” for “to mouse gut”, “ERS12561805” for “ERS12561806”
# Details: 2 µM
row,Compound,Bacterial Biotransformation
1,CNCCC(Oc1ccc(C(F)(F)F)cc1)c1ccccc1 (stereo not given) [FLUOXETINE],Compound NOT metabolized
2,CCc1nc(N)nc(N)c1-c1ccc(Cl)cc1 [PYRIMETHAMINE],Compound NOT metabolized
3,CN(C)CCc1c[nH]c2ccc(Cn3cncn3)cc12.O=C(O)c1ccccc1 [RIZATRIPTAN BENZOATE],Compound NOT metabolized

# Experiment: as §1, with “WLS-069” for “Z-006”, “human” for “mouse”, “ERS12561748” for “ERS12561806”
# Details: 2 µM
row,Compound,Bacterial Biotransformation
1,CNCCC(Oc1ccc(C(F)(F)F)cc1)c1ccccc1 (stereo not given) [FLUOXETINE],Compound NOT metabolized
2,CCc1nc(N)nc(N)c1-c1ccc(Cl)cc1 [PYRIMETHAMINE],Compound NOT metabolized
3,CN(C)CCc1c[nH]c2ccc(Cn3cncn3)cc12.O=C(O)c1ccccc1 [RIZATRIPTAN BENZOATE],Compound NOT metabolized

# Experiment: as §1, with “Z-004” for “Z-006”, “to” for “to mouse gut”, “ERS12561804” for “ERS12561806”
# Details: 2 µM
row,Compound,Bacterial Biotransformation
1,CNCCC(Oc1ccc(C(F)(F)F)cc1)c1ccccc1 (stereo not given) [FLUOXETINE],Compound NOT metabolized
2,CCc1nc(N)nc(N)c1-c1ccc(Cl)cc1 [PYRIMETHAMINE],Compound NOT metabolized
3,CN(C)CCc1c[nH]c2ccc(Cn3cncn3)cc12.O=C(O)c1ccccc1 [RIZATRIPTAN BENZOATE],Compound NOT metabolized

# Details: human gut metagenome, 24 h, 2 µM
# Remark: another data set of the same source
row,Compound,Bacterial Biotransformation
1,CNCCC(Oc1ccc(C(F)(F)F)cc1)c1ccccc1 (stereo not given) [FLUOXETINE],Compound NOT metabolized
2,CCc1nc(N)nc(N)c1-c1ccc(Cl)cc1 [PYRIMETHAMINE],Compound NOT metabolized
3,CN(C)CCc1c[nH]c2ccc(Cn3cncn3)cc12.O=C(O)c1ccccc1 [RIZATRIPTAN BENZOATE],Compound NOT metabolized

# Experiment: as §1, with “Z-017” for “Z-006”, “ERS12561816” for “ERS12561806”
# Details: 2 µM
row,Compound,Bacterial Biotransformation
1,CNCCC(Oc1ccc(C(F)(F)F)cc1)c1ccccc1 (stereo not given) [FLUOXETINE],Compound NOT metabolized
2,CCc1nc(N)nc(N)c1-c1ccc(Cl)cc1 [PYRIMETHAMINE],Compound NOT metabolized
3,CN(C)CCc1c[nH]c2ccc(Cn3cncn3)cc12.O=C(O)c1ccccc1 [RIZATRIPTAN BENZOATE],Compound NOT metabolized

# Experiment: as §1, with “WLS-052” for “Z-006”, “human” for “mouse”, “ERS12561747” for “ERS12561806”
# Details: 2 µM
row,Compound,Bacterial Biotransformation
1,CNCCC(Oc1ccc(C(F)(F)F)cc1)c1ccccc1 (stereo not given) [FLUOXETINE],Compound NOT metabolized
2,CCc1nc(N)nc(N)c1-c1ccc(Cl)cc1 [PYRIMETHAMINE],Compound NOT metabolized
3,CN(C)CCc1c[nH]c2ccc(Cn3cncn3)cc12.O=C(O)c1ccccc1 [RIZATRIPTAN BENZOATE],Compound NOT metabolized

# Experiment: as §1, with “Z-022” for “Z-006”, “ERS12561821” for “ERS12561806”
# Details: 2 µM
row,Compound,Bacterial Biotransformation
1,CNCCC(Oc1ccc(C(F)(F)F)cc1)c1ccccc1 (stereo not given) [FLUOXETINE],Compound NOT metabolized
2,CCc1nc(N)nc(N)c1-c1ccc(Cl)cc1 [PYRIMETHAMINE],Compound metabolized
3,CN(C)CCc1c[nH]c2ccc(Cn3cncn3)cc12.O=C(O)c1ccccc1 [RIZATRIPTAN BENZOATE],Compound NOT metabolized

# Experiment: as §1, with “WLS-220” for “Z-006”, “human” for “mouse”, “ERS12561769” for “ERS12561806”
# Details: 2 µM
row,Compound,Bacterial Biotransformation
1,CNCCC(Oc1ccc(C(F)(F)F)cc1)c1ccccc1 (stereo not given) [FLUOXETINE],Compound NOT metabolized
2,CCc1nc(N)nc(N)c1-c1ccc(Cl)cc1 [PYRIMETHAMINE],Compound NOT metabolized
3,CN(C)CCc1c[nH]c2ccc(Cn3cncn3)cc12.O=C(O)c1ccccc1 [RIZATRIPTAN BENZOATE],Compound NOT metabolized

# Details: human gut metagenome, 24 h, 2 µM
# Remark: another data set of the same source
row,Compound,Bacterial Biotransformation
1,CNCCC(Oc1ccc(C(F)(F)F)cc1)c1ccccc1 (stereo not given) [FLUOXETINE],Compound metabolized
2,CCc1nc(N)nc(N)c1-c1ccc(Cl)cc1 [PYRIMETHAMINE],Compound NOT metabolized
3,CN(C)CCc1c[nH]c2ccc(Cn3cncn3)cc12.O=C(O)c1ccccc1 [RIZATRIPTAN BENZOATE],Compound NOT metabolized

# Experiment: as §1, with “Z-029” for “Z-006”, “rat” for “mouse”, “ERS12561828” for “ERS12561806”
# Details: 2 µM
row,Compound,Bacterial Biotransformation
1,CNCCC(Oc1ccc(C(F)(F)F)cc1)c1ccccc1 (stereo not given) [FLUOXETINE],Compound NOT metabolized
2,CCc1nc(N)nc(N)c1-c1ccc(Cl)cc1 [PYRIMETHAMINE],Compound NOT metabolized
3,CN(C)CCc1c[nH]c2ccc(Cn3cncn3)cc12.O=C(O)c1ccccc1 [RIZATRIPTAN BENZOATE],Compound NOT metabolized

# Details: human gut metagenome, 24 h, 2 µM
# Remark: another data set of the same source
row,Compound,Bacterial Biotransformation
1,CNCCC(Oc1ccc(C(F)(F)F)cc1)c1ccccc1 (stereo not given) [FLUOXETINE],Compound NOT metabolized
2,CCc1nc(N)nc(N)c1-c1ccc(Cl)cc1 [PYRIMETHAMINE],Compound NOT metabolized
3,CN(C)CCc1c[nH]c2ccc(Cn3cncn3)cc12.O=C(O)c1ccccc1 [RIZATRIPTAN BENZOATE],Compound NOT metabolized

# Details: human gut metagenome, 24 h, 2 µM
# Remark: another data set of the same source
row,Compound,Bacterial Biotransformation
1,CNCCC(Oc1ccc(C(F)(F)F)cc1)c1ccccc1 (stereo not given) [FLUOXETINE],Compound NOT metabolized
2,CCc1nc(N)nc(N)c1-c1ccc(Cl)cc1 [PYRIMETHAMINE],Compound metabolized
3,CN(C)CCc1c[nH]c2ccc(Cn3cncn3)cc12.O=C(O)c1ccccc1 [RIZATRIPTAN BENZOATE],Compound NOT metabolized

# Details: human gut metagenome, 24 h, 2 µM
# Remark: another data set of the same source
row,Compound,Bacterial Biotransformation
1,CNCCC(Oc1ccc(C(F)(F)F)cc1)c1ccccc1 (stereo not given) [FLUOXETINE],Compound metabolized
2,CCc1nc(N)nc(N)c1-c1ccc(Cl)cc1 [PYRIMETHAMINE],Compound NOT metabolized
3,CN(C)CCc1c[nH]c2ccc(Cn3cncn3)cc12.O=C(O)c1ccccc1 [RIZATRIPTAN BENZOATE],Compound NOT metabolized

# Details: human gut metagenome, 24 h, 2 µM
# Remark: another data set of the same source
row,Compound,Bacterial Biotransformation
1,CNCCC(Oc1ccc(C(F)(F)F)cc1)c1ccccc1 (stereo not given) [FLUOXETINE],Compound NOT metabolized
2,CCc1nc(N)nc(N)c1-c1ccc(Cl)cc1 [PYRIMETHAMINE],Compound NOT metabolized
3,CN(C)CCc1c[nH]c2ccc(Cn3cncn3)cc12.O=C(O)c1ccccc1 [RIZATRIPTAN BENZOATE],Compound NOT metabolized

# Details: human gut metagenome, 24 h, 2 µM
# Remark: another data set of the same source
row,Compound,Bacterial Biotransformation
1,CNCCC(Oc1ccc(C(F)(F)F)cc1)c1ccccc1 (stereo not given) [FLUOXETINE],Compound NOT metabolized
2,CCc1nc(N)nc(N)c1-c1ccc(Cl)cc1 [PYRIMETHAMINE],Compound NOT metabolized
3,CN(C)CCc1c[nH]c2ccc(Cn3cncn3)cc12.O=C(O)c1ccccc1 [RIZATRIPTAN BENZOATE],Compound NOT metabolized

# Details: human gut metagenome, 24 h, 2 µM
# Remark: another data set of the same source
row,Compound,Bacterial Biotransformation
1,CNCCC(Oc1ccc(C(F)(F)F)cc1)c1ccccc1 (stereo not given) [FLUOXETINE],Compound NOT metabolized
2,CCc1nc(N)nc(N)c1-c1ccc(Cl)cc1 [PYRIMETHAMINE],Compound NOT metabolized
3,CN(C)CCc1c[nH]c2ccc(Cn3cncn3)cc12.O=C(O)c1ccccc1 [RIZATRIPTAN BENZOATE],Compound NOT metabolized
